The NIST ThermoML archive (doi:10.1016/j.jct.2019.01.007)
Several values for one entry are separate records, joined by “and”; a condition that tells them apart may be missing. Equal entries are not always repeated. Numbers after ± are expanded uncertainties.

Conditions: Liquid

CCCCCCCCCCCCCCCCCC(=O)OC [methyl octadecanoate]
Conditions | vapor or sublimation pressure
323.15 K | 1.964e-05 ± 1.7e-06 kPa
325.63 K | 2.609e-05 ± 1.7e-06 kPa
329.6 K | 4.071e-05 ± 1.7e-06 kPa
330.56 K | 4.58e-05 ± 1.7e-06 kPa
332.04 K | 5.362e-05 ± 1.8e-06 kPa
333.07 K | 6.007e-05 ± 1.8e-06 kPa
334.55 K | 6.999e-05 ± 1.8e-06 kPa
335.51 K | 7.764e-05 ± 1.8e-06 kPa
336.99 K | 9.04e-05 ± 1.9e-06 kPa
338.02 K | 0.0001008 ± 1.9e-06 kPa
339.5 K | 0.0001184 ± 2e-06 kPa
340.47 K | 0.0001287 ± 2e-06 kPa
340.98 K | 0.0001351 ± 2.1e-06 kPa
341.1 K | 0.0001377 ± 2.1e-06 kPa
341.96 K | 0.0001499 ± 2.1e-06 kPa
342.97 K | 0.0001648 ± 2.3e-06 kPa
343.46 K | 0.0001744 ± 2.4e-06 kPa
343.47 K | 0.0001739 ± 2.4e-06 kPa
343.6 K | 0.0001774 ± 2.4e-06 kPa
344.44 K | 0.0001914 ± 2.6e-06 kPa
345.44 K | 0.0002122 ± 2.8e-06 kPa
345.93 K | 0.0002228 ± 3e-06 kPa and 0.0002233 ± 3e-06 kPa
348.42 K | 0.0002848 ± 3.7e-06 kPa
348.57 K | 0.0002879 ± 3.8e-06 kPa
350.9 K | 0.0003613 ± 4.7e-06 kPa
355.89 K | 0.0005743 ± 7.3e-06 kPa
358.52 K | 0.0007236 ± 9.2e-06 kPa
360.89 K | 0.0008965 ± 1.1e-05 kPa
363.49 K | 0.001127 ± 1.4e-05 kPa
363.98 K | 0.00118 ± 1.5e-05 kPa
365.92 K | 0.001386 ± 1.7e-05 kPa
366.47 K | 0.00146 ± 1.8e-05 kPa
368.46 K | 0.001721 ± 2.1e-05 kPa
368.97 K | 0.001804 ± 2.3e-05 kPa
370.93 K | 0.002113 ± 2.6e-05 kPa
371.46 K | 0.002216 ± 2.8e-05 kPa
373.44 K | 0.002588 ± 3.2e-05 kPa
373.95 K | 0.00271 ± 3.4e-05 kPa
373.96 K | 0.002713 ± 3.4e-05 kPa
375.45 K | 0.003046 ± 3.8e-05 kPa
375.93 K | 0.003163 ± 3.9e-05 kPa
376.44 K | 0.003286 ± 4.1e-05 kPa
377.44 K | 0.003573 ± 4.4e-05 kPa
380.44 K | 0.004514 ± 5.6e-05 kPa and 0.0045 ± 5.6e-05 kPa
381.43 K | 0.004848 ± 6e-05 kPa
381.44 K | 0.004888 ± 6.1e-05 kPa and 0.0049 ± 6.1e-05 kPa
382.43 K | 0.005241 ± 6.5e-05 kPa
383.93 K | 0.005905 ± 7.3e-05 kPa
383.94 K | 0.0059 ± 7.3e-05 kPa
385.43 K | 0.006597 ± 8.2e-05 kPa and 0.006574 ± 8.1e-05 kPa
386.43 K | 0.007091 ± 8.8e-05 kPa and 0.007085 ± 8.8e-05 kPa
388.93 K | 0.00852 ± 0.00011 kPa
391.41 K | 0.01021 ± 0.00013 kPa
393.92 K | 0.0122 ± 0.0002 kPa
396.39 K | 0.01443 ± 0.00021 kPa
398.9 K | 0.01726 ± 0.00023 kPa
401.38 K | 0.0202 ± 0.00027 kPa
403.89 K | 0.02406 ± 0.00032 kPa
406.38 K | 0.0282 ± 0.00037 kPa
408.88 K | 0.03336 ± 0.00043 kPa

Transpiration method
Conditions | vapor or sublimation pressure [kPa]
369.05 K | 0.00176 ± 0.00036
371.15 K | 0.00202 ± 0.00041
375.1 K | 0.0027 ± 0.00055
377.05 K | 0.00323 ± 0.00066
380.05 K | 0.00389 ± 0.00079
383.15 K | 0.00494 ± 0.001
387.15 K | 0.00636 ± 0.0013
390.35 K | 0.00731 ± 0.0015
393.15 K | 0.00901 ± 0.0018
397.5 K | 0.013 ± 0.0026
399.45 K | 0.0149 ± 0.003
400.35 K | 0.0159 ± 0.0032
401.35 K | 0.0166 ± 0.0034
405.2 K | 0.0225 ± 0.0046
405.6 K | 0.0231 ± 0.0047
408.4 K | 0.0279 ± 0.0057
410.25 K | 0.0322 ± 0.0066
411.15 K | 0.0339 ± 0.0069
412.3 K | 0.036 ± 0.0073
415.2 K | 0.0433 ± 0.0088
416.35 K | 0.0424 ± 0.0086
419.25 K | 0.052 ± 0.011
420.15 K | 0.0563 ± 0.011
423.1 K | 0.0664 ± 0.013
425.15 K | 0.0804 ± 0.016

CCCCCCCCCCCC(=O)OC [methyl dodecanoate]
Transpiration method
Conditions | vapor or sublimation pressure [kPa]
323.8 K | 0.00609 ± 0.0012
325.9 K | 0.00701 ± 0.0014
327.9 K | 0.00853 ± 0.0017
329.9 K | 0.00982 ± 0.002
331.8 K | 0.0113 ± 0.0023
333.9 K | 0.0134 ± 0.0027
335.7 K | 0.0164 ± 0.0033
338.7 K | 0.0198 ± 0.004
340.7 K | 0.0228 ± 0.0046
344.1 K | 0.0291 ± 0.0059
345.9 K | 0.0331 ± 0.0067
349.3 K | 0.0413 ± 0.0084
351.3 K | 0.047 ± 0.0096
354.4 K | 0.0603 ± 0.012
356.4 K | 0.0682 ± 0.014
359.6 K | 0.0828 ± 0.017
361.5 K | 0.0952 ± 0.019
364.7 K | 0.11 ± 0.022
366.7 K | 0.132 ± 0.027
370 K | 0.16 ± 0.033
371.8 K | 0.178 ± 0.036
374.7 K | 0.214 ± 0.044
378.6 K | 0.263 ± 0.053
381.7 K | 0.314 ± 0.064
386.8 K | 0.412 ± 0.084
389.6 K | 0.491 ± 0.1
391.9 K | 0.534 ± 0.11
394.9 K | 0.635 ± 0.13
397 K | 0.694 ± 0.14
399.2 K | 0.774 ± 0.16
401.3 K | 0.898 ± 0.18
